Data on one compound can be found in article PMC9413201, “Covalent Proteomimetic Inhibitor of the Bacterial FtsQB Divisome Complex” (Journal of the American Chemical Society, 2022).

Numbered stars: 1 amine (or outer) side, 2 acyl side, 3 side chain; on linkers, the order of the positions; unused ones are H or OH. Bridge positions count the residues as written; N and C are the ends. Square brackets hold non-standard residues; d marks the D form. Peptide text beside a SMILES is read from it. * marks the point of attachment. X1 = O=C([C@H](CCCCCC=[*:3])N[*:1])[*:2]; Nle = CCCC[C@H](N)C(=O)O; BrAc = O=C(CBr)*

In this assay the test system is E. coli 87. Briefly: Zebrafish larvae infection model (E. coli 87 expressing mScarlet). The assay is classed as in vivo, zebrafish (Danio rerio) larvae. The settings on record: L8S1 3.125 μM, 17fα 70 μM, 15 zebrafish per condition. How it is done: 1.13 Microinjection of zebrafish larvae with E.coli 87 expressing mScarlet Transparent Casper zebrafish (Danio rerio) larvae were infected and treated according to protocols described by Van der Sar et al. and Bernard et al..7,8 In brief, zebrafish larvae collected from a laboratory-breeding colony kept at 24 °C and a 12:12 h dark/light regime. Larvae were selected based on morphology according to hours post fertilization (hpf) and kept at 28 °C. All protocols followed the international guidelines on the protection of animals used for scientific purposes specified by the EU Directive 2010/63/EU, which allows zebrafish larvae to be used up to the moment of free-living (5–7 dpf). Larvae were dechorionated at 28 hpf and anaesthetized in 0.2% tricaine methanesulfonate (MS222, Fluka A-5040). Larvae were individually infected with 1 nL, containing approximately 150-200 CFU ([…]), of mScarlet expressing clinical isolate E. coli 87 via microinjection of the caudal vein as described previously.9 One hour post infection, larvae were treated with L8S1, 17fα or a combination of the two via another microinjection of 1 nL in the caudal vein. To correct dilution of the treatment upon injection in the vein (1 nL in 250 nL zebrafish larvae volume), treatments were diluted in 0.1% phenol red (Sigma-Aldrich, p-0290) in phosphate buffered saline (PBS) to 250x the concentration as tested in vitro. Zebrafish larvae were kept at 30 °C throughout the experiment and survival of the larvae, based on heartbeat, was determined every 24 h for 2 d. Moreover, 18 h post infection larvae were anaesthetized using MS222 and bacterial load was determined using an Olympus IX83 fluorescence microscope (4x objective magnification, Hamamatsu ORCA-Flash 4.0 camera) at specific wavelength for detection of red fluorescence (excitation/emission, 580/610 nm). Obtained images were analyzed using CellProfiler 3.19 (Broad Institute, Cambridge, MA, USA) with a custom-made automated analysis pipeline to count and quantify pixel intensity within the larvae. Integrated red fluorescence intensity per larvae was used as a quantification of bacterial burden.

As to `CCCC[C@@H]1NC(=O)[C@H](CO)NC(=O)[C@H](CC(C)C)NC(=O)[C@H](CCC(=O)O)NC(=O)[C@H](CC(N)=O)NC(=O)[C@@H](NC(=O)[C@H](C)NC(C)=O)CCCCCC=CCCCCC[C@@H](C(=O)N[C@@H](CCCCNC(=O)CBr)C(=O)N[C@@H](Cc2ccccc2)C(=O)N[C@@H](Cc2ccc(O)cc2)C(=O)N[C@@H](CCCNC(=N)N)C(=O)N[C@@H](CC(C)C)C(N)=O)NC(=O)CNC(=O)[C@@H]2CCCN2C(=O)[C@H](CCCNC(=N)N)NC(=O)[C@H]([C@@H](C)O)NC1=O` [17fα] (Ac-A[X1]NELS[Nle]TRPG[X1]K(BrAc)FYRL-NH2; staple 2-12), under “infected with E. coli 87 (189 CFU), treated 1 h post infection by microinjection, survival by heartbeat, n = 4 replicates, SD”, the “Survival rate of zebrafish larvae after 24 h (mean ± SD)” value is reported as 20.0 ±16.3. For the same compound, the “Survival rate of zebrafish larvae after 24 h, replicate #1” value (replicate #1, E. coli 87 (189 CFU)) is given as 0. The “Survival rate of zebrafish larvae after 24 h, replicate #2” value (replicate #2, E. coli 87 (189 CFU)) stood at 40. Also, the “Survival rate of zebrafish larvae after 24 h, replicate #3” value (replicate #3, E. coli 87 (189 CFU)) stood at 20. Further, the “Survival rate of zebrafish larvae after 24 h, replicate #4” value (replicate #4, E. coli 87 (189 CFU)) worked out at 20.
